One compound from patent US20200037600A1, “MESOIONIC IMIDAZOPYRIDINES AS INSECTICIDES” (Bayer Aktiengesellschaft, priority 2017, published 2020) can be followed below.

What all share (type): in vivo
Assay [1] has as its system Ctenocephalides felis. Description: Ctenocephalides felis in vitro contact test with adult cat fleas. The following applies: application rate 5 μg/cm^2 (=500 g/ha), after 48 h. How it is done: Ctenocephalides felis—In Vitro Contact Tests with Adult Cat Fleas
For the coating of the test tubes, 9 mg of active compound are first dissolved in 1 ml of acetone p.a. and then diluted to the desired concentration with acetone p.a. 250 μl of the solution are distributed homogeneously on the inner walls and the base of a 25 ml glass tube by turning and rocking on an orbital shaker (rocking rotation at 30 rpm for 2 h). With 900 ppm of active compound solution and internal surface area 44.7 cm^2, given homogeneous distribution, an area-based dose of 5 μg/cm^2 is achieved.
After the solvent has evaporated off, the tubes are populated with 5-10 adult cat fleas (Ctenocephalides felis), sealed with a perforated plastic lid and incubated in a horizontal position at room temperature and ambient humidity. After 48 h, efficacy is determined. To this end, the tubes are stood upright and the fleas are knocked to the base of the tube. Fleas which remain motionless at the base or move in an uncoordinated manner are considered to be dead or moribund.
100% efficacy means that all the fleas were dead or moribund. 0% efficacy means that no fleas were harmed.

In assay [2] the test system is Diabrotica balteata. In words: Diabrotica balteata spray test. To be noted: application rate 160 μg/well; beetle larvae on germinated wheat grains; after 7 days.
For assay [3], the system named is Myzus persicae. Description: Myzus persicae oral test. The following applies: after 5 days. In outline:
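Aphids fed through parafilm on compound formulation (acetone, diluted with water) mixed 50:150 μL with IPL41 insect medium (33%+15% sugar), using a mixed population. Efficacy was recorded after 5 days as % mortality (100% = all aphids killed).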

Assay [4] concerns Nezara viridula. In words: Nezara viridula spray test. To be noted: application rate 500 g/ha; larvae on barley plants; after 4 days. The procedure:
Nezara viridula—Spray Test
(§1) Solvent: 78.0 parts by weight of acetone • • 1.5 parts by weight of dimethylformamide
(§2) Emulsifier: alkylaryl polyglycol ether
(§3) To produce a suitable active compound formulation, 1 part by weight of active compound is dissolved with the specified parts by weight of solvent and made up to the desired concentration with water containing an emulsifier concentration of 1000 ppm. To produce further test concentrations, the formulation is diluted with emulsifier-containing water.
Barley plants (Hordeum vulgare) infected with larvae of the Southern green shield bug (Nezara viridula) are srayed with an active compound formulation of the desired concentration.
After 4 days, the efficacy in % is determined. 100% means that all of the shield bugs have been killed; 0% means that none of the shield bugs have been killed.

Assay [5] has as its system Myzus persicae. Description: Myzus persicae spray test. To be noted: application rate 500 g/ha; Chinese cabbage leaf discs; after 5 days.
The test system of assay [6] is Nilaparvata lugens. Description: Nilaparvata lugens test. The following applies: application rate 500 g/ha; rice plants; after 4 days. The procedure:
as §1, §2, §3
Rice plants (Oryza sativa) are sprayed with the active compound formulation of the desired concentration and then infected with the brown planthopper (Nilaparvata lugens).
After 4 days, the efficacy in % is determined. 100% means that all of the planthoppers have been killed; 0% means that none of the planthoppers have been killed.

Molecules are shown by their SMILES.

For the compound `CC(=O)c1c([O-])[n+]2ccccc2n1Cc1cnc(Cl)s1` [Example I-008], the efficacy in assay [1] is 100%; in assay [2], 100%; in assay [3] (application rate 4 ppm), 100%; in assay [3] (application rate 20 ppm), 100%; in assay [4] it was 90%; in assay [5], 100%. In assay [6], this compound had an efficacy of 100%.
